Test results as given in patent US6610719B2 (Pfizer Inc., priority 2000, dated 2003).

How the values were obtained:
[1] = target: T1, EP4 receptor (Homo sapiens, UniProt P35408); assay: Assay for binding to prostaglandin E2 receptors, 3H-PGE2 displacement (EP4); details: displacement of 3H-prostaglandin E2, membranes of transfected 293S cells
T1 construct: These full length receptors are used to prepare 293S cells expressing the EP1, EP2, EP3 and EP4 receptors; expressed in transfected cells; membranes
Description: (§1) All operations are performed at 4° C. […] The cells are lysed by sonification with a Branson Sonifier (Model #250, Branson Ultrasonics Corporation, Danbury, Conn.) in 2 fifteen second bursts. Unlysed cells and debris are removed by centrifugation at 100×g for 10 min. Membranes are then harvested by centrifugation at 45,000×g for 30 minutes. Pelleted membranes are resuspended to 3-10 mg of protein per ml of Buffer A, the protein concentration being determined by the method of Bradford [M. Bradford, Anal. Biochem., 72, 248 (1976)]. Resuspended membranes are then stored frozen at −80° C. until use.
(§2) Frozen membranes prepared as above are thawed and diluted to 1 mg protein per ml in Buffer A above. One volume of membrane preparation is combined with 0.05 volume test compound or buffer and one volume of 3 nM ^3H-prostaglandin E2 (#TRK 431, Amersham, Arlington Heights, Ill.) in Buffer A. The mixture (205 μL total volume) is incubated for 1 hour at 25° C. The membranes are then recovered by filtration through type GF/C glass fiber filters (#1205-401, Wallac, Gaithersburg, Md.) using a Tomtec harvester (Model Mach 11/96, Tomtec, Orange, Conn.). […] To determine the amount of ^3H-prostaglandin bound to the membranes, the dried filters are placed into plastic bags with scintillation fluid and counted in a LKB 1205 Betaplate reader (Wallac, Gaithersburg, Md.). […]

[2] = target: T2, EP1 receptor (Homo sapiens, UniProt P34995); assay: Assay for binding to prostaglandin E2 receptors, 3H-PGE2 displacement (EP1); details: displacement of 3H-prostaglandin E2, membranes of transfected 293S cells; read-out: IC50 at EP1 receptor subtype
T2 construct: These full length receptors are used to prepare 293S cells expressing the EP1, EP2, EP3 and EP4 receptors; expressed in transfected cells; membranes
T2 sequence (P34995 1-402): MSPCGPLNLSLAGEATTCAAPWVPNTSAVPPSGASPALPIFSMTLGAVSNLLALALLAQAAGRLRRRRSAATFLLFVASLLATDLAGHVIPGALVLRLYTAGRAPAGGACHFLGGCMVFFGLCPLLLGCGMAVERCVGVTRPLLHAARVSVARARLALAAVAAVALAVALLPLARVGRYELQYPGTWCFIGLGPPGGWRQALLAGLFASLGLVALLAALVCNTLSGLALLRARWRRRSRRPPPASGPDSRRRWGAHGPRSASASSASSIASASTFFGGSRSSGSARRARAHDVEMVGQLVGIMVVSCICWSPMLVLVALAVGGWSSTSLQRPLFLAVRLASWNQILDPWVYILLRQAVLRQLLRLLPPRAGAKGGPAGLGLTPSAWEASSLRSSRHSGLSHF
Description: as §1, §2

[3] = target: T3, EP2 receptor (Homo sapiens, UniProt P43116); assay: Assay for binding to prostaglandin E2 receptors, 3H-PGE2 displacement (EP2); details: displacement of 3H-prostaglandin E2, membranes of transfected 293S cells; read-out: IC50 at EP2 receptor subtype
T3 construct: These full length receptors are used to prepare 293S cells expressing the EP1, EP2, EP3 and EP4 receptors; expressed in transfected cells; membranes
Description: as §1, §2

[4] = target: T4, EP3 receptor (Homo sapiens, UniProt P43115); assay: Assay for binding to prostaglandin E2 receptors, 3H-PGE2 displacement (EP3); details: displacement of 3H-prostaglandin E2, membranes of transfected 293S cells; read-out: IC50 at EP3 receptor subtype
T4 construct: These full length receptors are used to prepare 293S cells expressing the EP1, EP2, EP3 and EP4 receptors; expressed in transfected cells; membranes
T4 sequence (P43115 1-390): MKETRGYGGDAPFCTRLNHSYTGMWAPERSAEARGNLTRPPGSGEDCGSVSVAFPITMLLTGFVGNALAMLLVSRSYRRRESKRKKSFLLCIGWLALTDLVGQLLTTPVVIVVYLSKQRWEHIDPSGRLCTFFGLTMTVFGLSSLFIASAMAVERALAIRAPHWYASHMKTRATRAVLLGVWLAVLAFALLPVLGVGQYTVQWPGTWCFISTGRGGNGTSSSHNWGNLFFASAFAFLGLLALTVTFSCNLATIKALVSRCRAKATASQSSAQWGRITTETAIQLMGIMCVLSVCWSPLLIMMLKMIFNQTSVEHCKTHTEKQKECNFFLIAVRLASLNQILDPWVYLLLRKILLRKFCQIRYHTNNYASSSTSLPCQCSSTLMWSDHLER
Description: as §1, §2

[5] = tested on: nephrotoxic acute renal failure model; assay: Nephrotoxic acute renal failure model; type: in vivo, rat
Description: The remnant rat kidney (5/6 nephrectomy) model employed was essentially as previously described in the literature (Vukicevic et al., Journal of Bone and Mineral Research, 2:533-545 (1987)). In brief, male rats (4 months old, weighing approximately 400 g) were anesthesized by intraperitoneal administration of ketamin (20 mg/kg) and then subjected to unilateral nephrectomy (left kidney). All animals were subjected to intraperitoneal administration of 1-3 ml of prewarmed saline to compensate for any fluid loss during the surgery. After one week, ⅔ of the remaining kidney was surgically removed. The rats were allowed to recover for one or two weeks prior to the initiation of the therapy for the prevention of the disease.
Blood samples (0.5 ml) were obtained from the orbital plexus and serum creatinine, BUN (blood urea nitrogen), calcium, phosphate and other blood chemistries were monitored throughout the study. Urine was collected on metabolic cages for 24 h. Creatinine was measured by a Jaffe method. A. W. Whelton, A. J. Watson and R. C. Rock: “Nitrogen Metabolites and Renal Function,” in: Clinical Chemistry (Eds: C. A. Burtis and E. R. Ashwood) W. B. Saunders, Philadelphia, Pa., 1513-1575 (1994). BUN was measured by a glutamate dehydrogenase ultraviolet method, phosphorus by a molybdate method, and calcium by an o-cresolphtaleine method. R. A. Lafayette, R. D. Perrone and A. S. Levey: “Laboratory Evaluation of Renal Function,” in: Diseases of the Kidney (Eds: R. W. Schrier and C. W. Gottschalk), Little, Brown and Company, Inc., Vol. 6, 307-354 (1997). The GFR was calculated using […] (24 hr collection) and adjusted to body weights. The cumulative survival rate was also observed and recorded for both the control and the experimental groups. The kidney was subjected to histomorphometric analysis and scored for tissue pathology.
Two different models of acute renal failure were used: the nephrotoxic acute renal failure model, as described above, and the reperfusion renal injury model, which involved clamping both renal arteries for 60 minutes. […]

[6] = tested on: reperfusion renal injury model; assay: Reperfusion renal injury model (clamping both renal arteries for 60 minutes); type: in vivo, rat; details: 24 hours following reperfusion
Description: Two different models of acute renal failure were used: the nephrotoxic acute renal failure model, as described above, and the reperfusion renal injury model, which involved clamping both renal arteries for 60 minutes. (K. J. Kelly, W. W. Williams, R. B. Colvin and J. V. Bonventure, “Intercellular Adhesion Molecule 1 Protects the Kidney Against Ischemic Injury,” Proc. Natl. Acad. Sci. USA, 91:812-816 (1994); and S. Vukicevic, V. Basic, D. Rogic, N. Basic, M. S. Shih, A. Shepard, D. Jin, D. Bosukonda, W. Jones, H. Dorai, S. Ryan, D. Griffiths, J. Maliakal, M. Jelic, M. Pastorcic, A. Stavljenic and K. Sampath, “Osteogenic Protein-1 (Bone Morphogenetic Protein-7) Reduces Severity of Injury After Ischemic Acute Renal Failure in Rat,” J. Clin. Invest.,102:202-214 (1998).)
The animals were dosed with the EP4 agonist just prior to the initiation of the nephrotoxic insult.

T3 sequence (P43116 whole entry): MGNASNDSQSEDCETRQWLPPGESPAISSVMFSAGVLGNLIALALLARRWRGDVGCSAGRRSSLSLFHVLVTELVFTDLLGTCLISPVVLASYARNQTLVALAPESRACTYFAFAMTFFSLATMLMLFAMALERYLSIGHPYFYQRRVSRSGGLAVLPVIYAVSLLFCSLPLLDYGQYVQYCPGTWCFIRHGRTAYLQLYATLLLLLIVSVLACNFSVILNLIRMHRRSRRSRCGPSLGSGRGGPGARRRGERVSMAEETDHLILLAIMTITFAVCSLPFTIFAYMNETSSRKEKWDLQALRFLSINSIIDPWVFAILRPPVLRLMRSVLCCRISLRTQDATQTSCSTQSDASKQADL
T1 sequence (P35408 whole entry): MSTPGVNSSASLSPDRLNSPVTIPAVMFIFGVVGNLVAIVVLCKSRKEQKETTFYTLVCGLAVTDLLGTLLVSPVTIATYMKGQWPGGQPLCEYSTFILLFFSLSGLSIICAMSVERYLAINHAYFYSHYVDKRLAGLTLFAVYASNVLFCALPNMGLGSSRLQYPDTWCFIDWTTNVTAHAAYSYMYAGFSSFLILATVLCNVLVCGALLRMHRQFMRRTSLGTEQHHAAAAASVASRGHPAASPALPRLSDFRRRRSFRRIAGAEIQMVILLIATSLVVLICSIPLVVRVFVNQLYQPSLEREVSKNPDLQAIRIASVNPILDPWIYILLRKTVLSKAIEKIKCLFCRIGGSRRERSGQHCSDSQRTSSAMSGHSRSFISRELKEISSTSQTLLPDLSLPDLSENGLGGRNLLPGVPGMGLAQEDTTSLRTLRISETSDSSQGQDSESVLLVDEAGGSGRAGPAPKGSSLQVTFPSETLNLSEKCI

## O=C(O)CCCCCCN1C(=O)CCC1CCC(O)Cc1ccccc1 (centres unmarked) [7-(2-(3-hydroxy-4-phenyl-butyl)-5-oxo-pyrrolidin-1-yl)-heptanoic acid]
[1]
  IC50: 0.016 µM
[2]
  IC50: > 3.2 µM
[3]
  IC50: > 3.2 µM
[4]
  IC50: > 3.2 µM
[5]; dose of 10 mg/kg, control group four out of ten
  animals survived after seven days: nine out of ten
[5]; dosed just prior to the nephrotoxic insult
  protection against renal injury, based on serum parameters: effective in protecting against renal injury
[5]; doses 1 mg/kg and 10 mg/kg, 10 mg/kg better than 1 mg/kg
  survival time of animals: increased the survival time of animals in a dose dependent manner
[6]
  efficacy in reperfusion renal injury: effective 24 hours following reperfusion
